From patent US20060035901A1, “Methotrexate derivatives useful for treating cancer and arthritis” (Serenex, Inc., priority 2004, published 2006)

Columns and labels:
[1] = molecular target: T1, propionyl-CoA carboxylase subunit alpha (PCCA) (Sus scrofa, UniProt P0DTA4); assay: Elution of PCCA from ATP-Sepharose column loaded with porcine liver proteome, IC50 estimate; type: binding; conditions: estimated from percent of protein eluted from ATP-Sepharose column, read-out: Approximate IC50 for PCCA
T1 construct: a porcine liver proteome was run over an ATP-Sepharose™ column; from tissue; host or cells: porcine liver
T1 sequence (P0DTA4 53-730): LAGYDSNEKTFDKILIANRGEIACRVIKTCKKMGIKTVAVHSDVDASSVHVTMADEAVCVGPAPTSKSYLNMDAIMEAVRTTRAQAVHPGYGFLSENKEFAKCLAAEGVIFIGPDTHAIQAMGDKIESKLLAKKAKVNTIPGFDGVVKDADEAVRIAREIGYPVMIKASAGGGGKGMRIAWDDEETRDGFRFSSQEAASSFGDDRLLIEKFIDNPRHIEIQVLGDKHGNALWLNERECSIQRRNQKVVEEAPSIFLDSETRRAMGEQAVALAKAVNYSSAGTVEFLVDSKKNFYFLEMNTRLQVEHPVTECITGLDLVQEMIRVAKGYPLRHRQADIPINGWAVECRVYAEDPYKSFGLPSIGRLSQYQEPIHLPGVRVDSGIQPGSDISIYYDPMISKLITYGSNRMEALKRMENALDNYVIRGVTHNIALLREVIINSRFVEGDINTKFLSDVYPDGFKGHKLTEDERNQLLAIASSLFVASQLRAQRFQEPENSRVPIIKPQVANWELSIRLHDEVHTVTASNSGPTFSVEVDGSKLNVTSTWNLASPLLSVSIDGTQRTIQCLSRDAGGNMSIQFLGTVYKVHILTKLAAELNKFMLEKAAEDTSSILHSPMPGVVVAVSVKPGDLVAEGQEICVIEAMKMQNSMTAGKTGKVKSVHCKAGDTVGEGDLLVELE
T1 sequence (P79384 29-539 partner): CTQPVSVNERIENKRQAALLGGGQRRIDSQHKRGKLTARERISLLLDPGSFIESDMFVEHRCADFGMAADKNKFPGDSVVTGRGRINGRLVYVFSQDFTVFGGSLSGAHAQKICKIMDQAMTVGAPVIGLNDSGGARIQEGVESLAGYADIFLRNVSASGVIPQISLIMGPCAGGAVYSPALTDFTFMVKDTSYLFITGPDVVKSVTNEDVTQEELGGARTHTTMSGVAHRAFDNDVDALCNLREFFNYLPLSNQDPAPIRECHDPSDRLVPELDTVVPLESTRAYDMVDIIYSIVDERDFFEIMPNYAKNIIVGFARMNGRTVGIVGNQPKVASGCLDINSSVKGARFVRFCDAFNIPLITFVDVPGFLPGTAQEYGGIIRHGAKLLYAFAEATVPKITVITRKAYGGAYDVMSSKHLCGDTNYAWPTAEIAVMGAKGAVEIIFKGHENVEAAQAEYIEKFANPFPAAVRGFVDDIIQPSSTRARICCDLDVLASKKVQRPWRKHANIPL
Procedure: Similar experiments were carried out to compare the IC50 values for PYC, PCCA, and PCCB. In these trials, a porcine liver proteome was run over an ATP-Sepharose™ column to bind all purine-binding proteins. The ATP-Sepharose™ column was washed several times, and then eluted with the compound of Formula III at concentrations of 1 μM, 5 μM, 10 μM, 50 μM, 100 μM, and 500 μM to identify proteins that bound to this compound.
Gels were stained with a fluorescent stain such as sypro ruby (a highly sensitive fluorescent protein stain that can readily detect less than 1 fmol of total protein, i.e., less than 0.04 ng for a 40 kDa protein). The gels were imaged using a standard flat bed gel imager and the amount of protein estimated by densiometry. The percent of protein eluted from the column at each concentration was determined and IC50 values were calculated from these estimates. Where necessary, the eluted proteins were cut out of the gel, and identified using mass spectral techniques.
The values obtained were then compared to those for DHFR.

B-Raf = B-Raf (Homo sapiens, UniProt P15056); assay: Elution of B-Raf from ATP-Sepharose column by compound (Proteome Mining), IC50 estimate; type: binding; conditions: estimated from percent of protein eluted from ATP-Sepharose column, gel densitometry; read-out: Approximate IC50 for B-Raf
Procedure: A proteome containing a known quantity of Her2, EGFR, and B-Raf was run over an ATP-Sepharose™ column in order to bind all purine-binding proteins. See, WO 00/63694 and U.S. Provisional Application No. 60/453,697 filed Jan. 22, 2003, each of which is incorporated by reference in its entirety. The ATP-Sepharose™ was washed several times, and then eluted with the compound of Formula III. The experiment was run in duplicate at concentrations of 20 μM, 100 μM, and 500 μM of the compound of Formula III. The eluted fractions were run on a 1-dimensional SDS polyacrylamide gel. Gels were stained with a fluorescent stain such as sypro ruby (a highly sensitive fluorescent protein stain that can readily detect less than 1 fmol of total protein, i.e., less than 0.04 ng for a 40 kDa protein). The gels were imaged using a standard flat bed gel imager and the amount of protein estimated by densiometry. The percent of protein eluted from the column at each concentration was determined and IC50 values were calculated from these estimates. Where necessary, the eluted proteins were cut out of the gel, and identified using mass spectral techniques.
These steps were repeated with each of the compounds of Formulas IV-X, MTX, and the c series derivative.

[2] = test system: NCI/ADR Res (breast; adenocarcinoma); assay: Cell proliferation assay (WST-1), NCI/ADR Res; type: cell-based; conditions: NCI/ADR Res cells
Procedure: (§1) A panel of cancer cell lines was obtained from the DCTP Tumor Repository, National Cancer Institute (Fredrick, Md.) or ATCC (Rockville, Md.). Cell cultures were maintained in Hyclone RPMI 1640 medium (Logan, Utah) supplemented with 10% fetal bovine serum and 20 mM HEPES buffer, pH 7.2, at 37° C., 5% CO2 atmosphere. Cultures were maintained at sub-confluent densities.
(§2) For proliferation assays, cells were seeded with the appropriate medium into 96 well plates at 1,000-2,000 cells per well, depending on cell line, and were incubated overnight. The following day, an amount of test compound, DMSO solution (negative control), or Actinomycin D (positive control) was added to the appropriate wells as 10× concentrated stocks prepared in phosphate buffered saline. The cell plates were then incubated for an additional 2-5 days, dependent on cell line, to allow for proliferation to occur. […] Optical density was determined for each well a 450 nm using a Tecan GniosPro plate reader (RTP, NC). The percentage of cell growth was then determined by comparing the cell growth in the presence of test compounds to the DMSO vehicle control treated cells (100% growth) and […] Actinomycin D treated cells (0% growth).

[3] = test system: T47D (mammary; carcinoma); assay: Cell proliferation assay (WST-1), T47D; type: cell-based; conditions: T47D cells
Procedure: as §1, §2

PC-3 (N/A; carcinoma) = assay: Cell proliferation assay (WST-1), PC-3; type: cell-based; conditions: PC-3 cells
Procedure: as §1, §2

B-Raf, sequence (P15056 whole entry, species assumed): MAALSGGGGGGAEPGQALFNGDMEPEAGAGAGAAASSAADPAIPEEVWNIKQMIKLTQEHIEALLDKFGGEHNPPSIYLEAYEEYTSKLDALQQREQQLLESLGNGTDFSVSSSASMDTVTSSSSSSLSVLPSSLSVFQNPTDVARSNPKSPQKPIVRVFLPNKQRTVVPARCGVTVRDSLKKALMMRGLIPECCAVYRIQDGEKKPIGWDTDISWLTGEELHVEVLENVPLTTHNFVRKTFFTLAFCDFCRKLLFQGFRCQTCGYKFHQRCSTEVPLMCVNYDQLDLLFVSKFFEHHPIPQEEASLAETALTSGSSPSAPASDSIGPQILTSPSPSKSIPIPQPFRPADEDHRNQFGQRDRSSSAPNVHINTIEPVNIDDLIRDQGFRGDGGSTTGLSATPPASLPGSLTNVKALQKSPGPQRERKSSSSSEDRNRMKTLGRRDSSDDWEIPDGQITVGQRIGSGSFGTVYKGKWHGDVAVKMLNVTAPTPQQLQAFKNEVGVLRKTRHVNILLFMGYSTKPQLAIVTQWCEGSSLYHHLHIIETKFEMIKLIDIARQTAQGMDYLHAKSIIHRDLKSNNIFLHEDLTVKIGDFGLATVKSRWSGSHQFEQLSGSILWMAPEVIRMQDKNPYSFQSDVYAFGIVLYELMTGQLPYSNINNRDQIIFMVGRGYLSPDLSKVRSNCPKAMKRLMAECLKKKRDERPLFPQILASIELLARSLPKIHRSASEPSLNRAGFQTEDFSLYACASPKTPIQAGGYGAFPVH

| IC50 [1] [µM] | IC50 (B-Raf) [µM] | Fold Improvement in Cell Proliferation IC50 Compared to MTX [2] [fold] | Fold Improvement in Cell Proliferation IC50 Compared to MTX [3] [fold] | Fold Improvement in Cell Proliferation IC50 Compared to MTX (PC-3 (N/A; carcinoma)) [fold] | Structure (SMILES) |
| --- | --- | --- | --- | --- | --- |
| 2 |  |  |  |  | Cc1cc(C(=O)NC(CCC(=O)O)C(=O)O)ccc1N(Cc1ccoc1)Cc1cnc2nc(N)nc(N)c2n1 (stereo not drawn) [Formula VII] |
| 2 | 5 |  |  |  | C#CCN(Cc1cnc2nc(N)nc(N)c2n1)c1ccc(C(=O)NC(CCC(=O)O)C(=O)O)cc1OC (stereo not drawn) [Formula VIII] |
| 2 | 5 | >1 | 3 | >1 | C#CCN(Cc1cnc2nc(N)nc(N)c2n1)c1ccc(C(=O)NC(CCC(=O)O)C(=O)O)cc1C (stereo not drawn) [Formula III, 2-{4-[(2,4-diamino-pteridin-6-ylmethyl)-prop-2-ynyl-amino]-3-methyl-benzoylamino}-pentanedioic acid] |
| 10 |  |  |  |  | C#CCN(Cc1cnc2nc(N)nc(N)c2n1)c1ccc(C(=O)NC(CCC(=O)O)C(=O)O)cc1OC(F)(F)F (stereo not drawn) [Formula IX] |
